US20240299376A1, “METHOD OF TREATING A CONDITION USING A […] EFFECTIVE DOSE OF 1-(1-OXO-1,2-DIHYDROISOQUINOLIN-5-YL)-5-(TRIFLUOROMETHYL)-N-(2-(TRIFLUOROMETHYL)PYRIDIN-4-YL)-1H-PYRAZOLE-4-CARBOXAMIDE” (Janssen Pharmaceutica NV, priority 2021, published 2024)
Where two headings read alike, the source gives them in different places.

Experiments:
[1] = test system: human cytokine IL-10 in serum; assay: Serum IL-10 (MSD assay) after a single dose in OCI-LY3 tumor-bearing NSG mice; format: in vivo
Experimental: NF-κB signaling regulates the secretion of multiple cytokines, including interleukin-10 (IL-10). MALT1 inhibition results in a decrease of IL-10 transcription and translation as well as secretion. Levels of the human cytokine IL-10 were measured in the serum of OCI-LY3 or OCI-LY10 ABC-DLBCL tumor bearing mice using a Mesoscale Discovery assay (MSD). 25 μL of mouse serum was transferred to an MSD plate (V-Plex Proinflammation Panel I (human) kit) and incubated together with 25 μL diluent 2 (MSD; R51BB-3) for 2 hours at RT followed by a 2-hour incubation with IL-10 antibody solution. Plates were read on a SECTOR imager. Serum human IL-10 levels were correlated to serum compound concentration.
Serum IL-10 levels are graphed as the mean+/−SD.
For PD, when tumors reached 550-750 mm^3 animals were assigned randomly into the treatment groups and treated as presented in Table 5. Dose volumes were adjusted to individual body weights at 10 mL/kg. For both PD studies, serum was collected at 2 and 12 hours post treatment from the retro-orbital sinus. At 24 hours post treatment, animals were bled via decapitation and tumors were excised, weighed, and divided for bioanalysis and ex vivo PD analysis. Blood was centrifuged at 10,000 rpm and serum divided for bioanalysis and PD analysis.

[2] = test system: panel of 91 tumor cell lines; assay: Growth inhibition across various cancer indications; format: cell-based; conditions: more than 18 tumor indications, no ABC-DLBCL lines
Text: The panel represents cancer cell lines from more than 18 different tumor indications, including breast, colon, lung, ovarian, and blood cancers.

Single IV dose plasma PK [3] = format: in vivo, dog
Experimental: (§1) Single intravenous (IV) dose PK was conducted in mice (two strains), rats, monkeys, and dogs at a dose of 1 mg/kg in 70% PEG400 (PEG400/water 70:30) by bolus injection. The time course for plasma sample was optimized to fully characterize the disposition profile in each species. PK analysis was by non-compartmental method.

Single IV dose plasma PK [4] = format: in vivo, monkey
Experimental: as §1

[5] = Single oral dose plasma PK in fasted dogs; format: in vivo, dog; conditions: for bioavailability / AUC(0-inf) / Cmax / Tmax / AUC(0-t) / half-life: beagle, dog, plasma
Text: With the suspension formulation the double-peak phenomenon is even more pronounced.
As observed in rats, dose escalation in dogs resulting in proportional or dose-related exposure with the PEG400 solution was unsuccessful in identifying a vehicle suitable for toxicology studies.

[6] = Pharmacokinetic modeling and simulations to predict the human dose; conditions: corresponds to mouse trough at 10 mg/kg BID after accounting for protein binding difference mice/human
Experimental: According to the tested scenario, the minimum predicted efficacious dose is approximately 110 mg given once daily.
The pharmacokinetic modeling was used based on available non-clinical pharmacokinetic data and allometric scaling. In addition, modeling using GastroPlus and SimCYP was also used to guide PK parameter prediction.

[7] = test system: phosphorylation of IκBα in OCI-LY3 cells; conditions: unstimulated conditions
Text: The phospho-IκBα (pIκBα) signal was quantified as percent of DMSO control and normalized against β-tubulin.

[8] = male, plasma, Dog, beagle, 3M, 1 mg/kg IV in 70% PEG400, mean
[9] = male, plasma, Monkey, cynomolgus, 3M, 1 mg/kg IV in 70% PEG400, mean
[10] = female, po, 100 mg/kg, 2F, 100 mg/kg PO, 100% PEG400 solution, Study 7
[11] = female, po, 280 mg/kg, 2F, 280 mg/kg PO, 100% PEG400 solution, Study 7
[12] = male, po, 5 mg/kg, 3M (N = 2 used), 5 mg/kg PO, 100% PEG400 solution, Study 1
[13] = male, po, 5 mg/kg, 3M, 5 mg/kg PO, 0.5% HPMC suspension, Study 4
[14] = male, po, 5 mg/kg, 3M, 5 mg/kg PO, -ZAF salt nanosuspension (HPMC:DOSS suspension), Study 5
[15] = male, po, 20 mg/kg, 3M, 20 mg/kg PO, 0.5% HPMC suspension, Study 2
[16] = male, po, 20 mg/kg, 3M, 20 mg/kg PO, 0.5% HPMC suspension, Study 4
[17] = male, po, 20 mg/kg, 3M, 20 mg/kg PO, 100% PEG400 solution, Study 3
[18] = male, po, 20 mg/kg, 3M, 20 mg/kg PO, -ZAF salt nanosuspension (HPMC:DOSS suspension), Study 5
[19] = male, po, 22.5 mg/kg, 3M, 22.5 mg/kg PO, PEG400/PVP VA 90:10 solution, Study 6

In the case of `O=C(Nc1ccnc(C(F)(F)F)c1)c1cnn(-c2cccc3c(=O)[nH]ccc23)c1C(F)(F)F` [Compound A, 1-(1-oxo-1,2-dihydroisoquinolin-5-yl)-5-(trifluoromethyl)-N-[2-(trifluoromethyl)pyridin-4-yl]-1H-pyrazole-4-carboxamide], the “inhibition or reduction of serum IL-10” value ([1]; single dose 10 mg/kg, 12 hours post dose) is reported as “intermediate inhibition or reduction”, the “inhibition or reduction of serum IL-10” value ([1]; single dose 30 mg/kg, 12 hours post dose) is reported as “completely inhibited or reduced serum IL-10” and the “inhibition or reduction of serum IL-10” value ([1]; single dose 100 mg/kg, 12 hours post dose) is reported as “completely inhibited or reduced serum IL-10”. For the same compound, the “inhibition or reduction of serum IL-10” value ([1]; single dose, 24 hours post dose) was “lost at 24 hours post dose”, the “sensitivity of tumor cell lines (cell viability)” value [2] was “no single cell lines showing sensitivity to Compound A up to 20 μM” and the “CL as fraction of liver blood flow (LBF)” value (Single IV dose plasma PK [3]; dog, LBF 30.9 mL/min/kg) was 3.0%. For the same compound, the AUC(0-inf) (Single IV dose plasma PK [3]; [8]) was 23.1 µg·h/mL, the C0 (Single IV dose plasma PK [3]; [8]) was 2070 ng/mL and the clearance (Single IV dose plasma PK [3]; [8]) was 0.772 mL/min/kg. It also gave a half-life (Single IV dose plasma PK [3]; [8]) of 16.9 h, a Vd (Single IV dose plasma PK [3]; male, plasma, Dog, beagle, 3M, 1 mg/kg IV in 70% PEG400, mean, read-out: Vdss) of 1.01 L/kg and an AUC(0-inf) (Single IV dose plasma PK [4]; [9]) of 16.4 µg·h/mL. For the same compound, the C0 (Single IV dose plasma PK [4]; [9]) was 1840 ng/mL, the clearance (Single IV dose plasma PK [4]; [9]) was 1.12 mL/min/kg and the half-life (Single IV dose plasma PK [4]; [9]) was 11.9 h. The Vd (Single IV dose plasma PK [4]; male, plasma, Monkey, cynomolgus, 3M, 1 mg/kg IV in 70% PEG400, mean, read-out: Vdss) was 0.748 L/kg, the “CL as fraction of liver blood flow (LBF)” value (Single IV dose plasma PK [4]; monkey, LBF 43.6 mL/min/kg) was 1.7% and the “increase of Cmax or AUC with dose” value ([5]; Study 7, doses of 100, 280, and 560 mg/kg, PEG400 solution) was ≤ 25%. For the same compound, the bioavailability ([5]; po, 5 mg/kg, 5 mg/kg PO, -ZAF salt nanosuspension (HPMC:DOSS suspension), Study 5) was 12 to 69%, the bioavailability ([5]; po, 20 mg/kg, 20 mg/kg PO, 0.5% HPMC suspension, Study 4) was 7 to 89% and the bioavailability ([5]; po, 20 mg/kg, 20 mg/kg PO, -ZAF salt nanosuspension (HPMC:DOSS suspension), Study 5) was 6.7%. The bioavailability ([5]; po, 22.5 mg/kg, 22.5 mg/kg PO, PEG400/PVP VA 90:10 solution, Study 6) was > 100%, the AUC(0-inf) ([5]; po, 560 mg/kg, 560 mg/kg PO, 100% PEG400 solution, Study 7, N = 1) was 1760 µg·h/mL and the AUC(0-inf) [5, 10] was 1360 µg·h/mL. The Cmax [5, 10] was 24300 ng/mL, the Tmax [5, 10] was 15.5 h and the AUC(0-t) ([5]; female, po, 100 mg/kg, 2F, 100 mg/kg PO, 100% PEG400 solution, Study 7, Tlast = 96 hours) was 1250 µg·h/mL. For the same compound, the AUC(0-inf) [5, 11] was 1680 µg·h/mL, the Cmax [5, 11] was 30600 ng/mL and the AUC(0-t) ([5]; female, po, 280 mg/kg, 2F, 280 mg/kg PO, 100% PEG400 solution, Study 7, Tlast = 96 hours) was 1510 µg·h/mL. It also gave a Tmax ([5]; female, po, 280 mg/kg, 2F, 280 mg/kg PO, 100% PEG400 solution, Study 7, median) of 24 h, a Cmax ([5]; female, po, 280 mg/kg, 2F, 280 mg/kg PO, PEG400/PVP VA 90:10 solution, Study 7) of 106000 ng/mL and an AUC(0-t) ([5]; female, po, 280 mg/kg, 2F, 280 mg/kg PO, PEG400/PVP VA 90:10 solution, Study 7, Tlast = 96 hours) of 1970 µg·h/mL. The Tmax ([5]; female, po, 280 mg/kg, 2F, 280 mg/kg PO, PEG400/PVP VA 90:10 solution, Study 7, median) was 24 h, the Cmax ([5]; female, po, 480 mg/kg, 2F, 480 mg/kg PO, PEG400/PVP VA 90:10 solution, Study 7) was 76600 ng/mL and the AUC(0-t) ([5]; female, po, 480 mg/kg, 2F, 480 mg/kg PO, PEG400/PVP VA 90:10 solution, Study 7, Tlast = 96 hours) was 1510 µg·h/mL. It also gave a Tmax ([5]; female, po, 480 mg/kg, 2F, 480 mg/kg PO, PEG400/PVP VA 90:10 solution, Study 7, median) of 27.5 h, a Cmax ([5]; female, po, 560 mg/kg, 2F, 560 mg/kg PO, 100% PEG400 solution, Study 7) of 31800 ng/mL and an AUC(0-t) ([5]; female, po, 560 mg/kg, 2F, 560 mg/kg PO, 100% PEG400 solution, Study 7, Tlast = 96 hours) of 2010 µg·h/mL. For the same compound, the Tmax ([5]; female, po, 560 mg/kg, 2F, 560 mg/kg PO, 100% PEG400 solution, Study 7, median) was 24 h, the “increase in Cmax and AUC” value ([5]; from 22.5 to 280 mg/kg, PVP VA in PEG400 solution) was “approximately 5 fold” and the bioavailability ([5]; male, oral, 5 mg/kg, 5 mg/kg PO, 100% PEG400 solution, Study 1, calculated using the IV data from Study 1) was > 100%. It also gave a bioavailability ([5]; male, po, 5 mg/kg, 5 mg/kg PO, 0.5% HPMC suspension, Study 4) of 14 to 66%, an AUC(0-inf) [5, 12] of 146 µg·h/mL and a Cmax [5, 12] of 6150 ng/mL. The Tmax [5, 12] was 2 h, the half-life [5, 12] was 17.3 h and the AUC(0-t) ([5]; male, po, 5 mg/kg, 3M (N = 2 used), 5 mg/kg PO, 100% PEG400 solution, Study 1, Tlast = 48 hours) was 143 µg·h/mL. For the same compound, the AUC(0-inf) [5, 13] was 30.7 µg·h/mL, the AUC(0-t) [5, 13] was 43.7 µg·h/mL and the Cmax [5, 13] was 2030 ng/mL. The Tmax [5, 13] was 9 h, the half-life [5, 13] was 21.8 h and the AUC(0-inf) [5, 14] was 26.4 µg·h/mL. For the same compound, the AUC(0-t) [5, 14] was 43.7 µg·h/mL, the Cmax [5, 14] was 1450 ng/mL and the Tmax [5, 14] was 9.33 h. For the same compound, the half-life [5, 14] was 11.5 h, the AUC(0-inf) ([5]; male, po, 20 mg/kg, 20 mg/kg PO, 0.5% HPMC suspension, Study 2, N = 1 animal with low exposure) was 15.6 µg·h/mL and the bioavailability ([5]; male, po, 20 mg/kg, 20 mg/kg PO, 100% PEG400 solution, Study 3) was 33 to 72%. The Cmax [5, 15] was 4010 ng/mL, the Tmax [5, 15] was 16.7 h and the half-life [5, 15] was 17.8 h. It also gave an AUC(0-t) ([5]; male, po, 20 mg/kg, 3M, 20 mg/kg PO, 0.5% HPMC suspension, Study 2, Tlast = 72 hours) of 153 µg·h/mL, an AUC(0-inf) [5, 16] of 31.8 µg·h/mL and an AUC(0-t) [5, 16] of 160 µg·h/mL. The Cmax [5, 16] was 4080 ng/mL, the Tmax [5, 16] was 16.7 h and the half-life [5, 16] was 14.3 h. It also gave an AUC(0-inf) [5, 17] of 224 µg·h/mL, a Cmax [5, 17] of 5770 ng/mL and a Tmax [5, 17] of 8.33 h. For the same compound, the half-life [5, 17] was 18.6 h, the AUC(0-t) ([5]; male, po, 20 mg/kg, 3M, 20 mg/kg PO, 100% PEG400 solution, Study 3, Tlast = 96 hours) was 215 µg·h/mL and the AUC(0-inf) [5, 18] was 87 µg·h/mL. It also gave an AUC(0-t) [5, 18] of 111 µg·h/mL, a Cmax [5, 18] of 3510 ng/mL and a Tmax [5, 18] of 9 h. It also gave a half-life [5, 18] of 16.6 h, an AUC(0-inf) [5, 19] of 757 µg·h/mL and a Cmax [5, 19] of 21000 ng/mL. It also gave a Tmax [5, 19] of 1.25 h, a half-life [5, 19] of 14.1 h and an AUC(0-t) ([5]; male, po, 22.5 mg/kg, 3M, 22.5 mg/kg PO, PEG400/PVP VA 90:10 solution, Study 6, Tlast = 96 hours) of 741 µg·h/mL. The “Ctrough at steady state targeted in humans” value [6] was 4640 ng/mL and the “inhibition of phospho-IκBα” value [7] was “did not inhibit phospho-IκBα”.
